From US8603493B2, “Carbosilane dendrimers, preparation method thereof and use of same” (Dendrico, S.L., priority 2005, dated 2013)

Key:
[1] = tested on: PBMC; assay: Flow cytometry test (size and complexity; live cells vs apoptosis-necrosis); assay type: cell-based, human; conditions: 72 hours, same concentrations as Trypan Blue test
Procedure: The evaluation time on this occasion was 72 hours. The toxicity was evaluated on PBMC, produced in the manner described in Example 38. […] The ODN used was PPT, in the following way: • [ODN PPT] in the complex with the CBS: 2.57 (0.88 μM) • [ODN PPT] in the complex with SF: 0.34 μM • [ODN PPT] in the complex with G4: 1 μM […] The cells were either incubated with said complexes, a mixture of equal volume which contained ODN without CBS, a mixture which contained dendrimer alone, or with a mixture which contained only RPMI+complete medium which was used as negative control. The cells and/or the supernatant were then collected to be analysed by flow cytometry, confocal microscopy or cell DNA extraction. The percentages of cells with size and complexity corresponding to cells in apoptosis-necrosis were compared with the live cells. For this, the size (FW) and the complexity (SD) was evaluated by flow cytometry. To do this, a region was drawn around the cells with FW and SD corresponding to cells in apoptosis-necrosis and another around the cells with FW and SD corresponding to live cells. The percentages of cells present in each slide were compared. The graphics produced are shown in FIG. 15, wherein the X-axis represents the size (FW) and the Y-axis the complexity (SD). […] The cloud of dark cells corresponds to cells in apoptosis necrosis. The live cells are represented in grey.

[2] = tested on: ODN PPT; assay: Stability of the dendriplexes at different pHs; assay type: physicochemical; conditions: dendriplexes with PPT, 2/1 charge ratio
Procedure: Stability studies were carried out on the complexes a different pHs, to determine how the changes in pH would affect the complex, since there are different anatomic, tissue or cell localizations in which the pH acidifies or alkalinifies. Examples are stomach ambient acid, the alkali of the pancreatic secretions of the small intestine, or at a cellular level, the endosome-lisosome behaviour, where it changes from a physiological pH (7.35-7.45) to an acid pH around 4. It is interesting to know, therefore, in what pH range the DNA complex could be maintained with the different CBS used. The complexes were formed following the habitual process and volumes were added in excess of different solutions at different pHs. Therefore, for each one of dendrimers Phe, ClNH4, NN, IM8 and IM16, according to Example 31, 7 solutions were prepared of dendriplexes formed with PPT, in a 2/1 charge ratio and with the following pHs: […]; 2.7; 4.7; 5.7; 6.4; 7.4; 8: The results produced are shown in the electrophoresis gels which appear in FIG. 4, wherein the height of the normal ODN migration band is shown with arrows in the lower part of the gels. The samples were loaded from left to right following an increasing pH order. No sample was formed in the wells indicated with an X.

[3] = tested on: peripheral blood mononuclear cells (PBMC); assay: Mitochondrial activity: MTT on PBMC; assay type: cell-based, human; conditions: for Cell viability after incubation with dendrimers according to MTT: 48 hours, relative to untreated control; for mitochondrial viability (comparison among dendrimers): increasing concentrations of CBS or SF
Procedure: The toxicity of dendrimers IM8, IM16, ClNH4, NN, Phe and the commercial controls SF (Superfect) and G4 were tested. Different quantities were taken of each one of them so that the final concentrations with which the cells were incubated were 1 μM, 5 μM, 10 μM, 20 μM and 100 μM.
The blood came from adult donors or the umbilical cord of health newborns. Said blood was diluted ½ with PBS and it was centrifuged in a Ficoll gradient. After said centrifugation, the PBMC halo was recovered and two subsequent washing-centrifuging cycles were carried out. The resulting PBMC were resuspended in complete culture medium with 10% FCS, antibiotics and glutamine.
100 μl of 10% complete medium of foetal calf serum, antibiotics and glutamine were added to a volume of 60 μl of RPMI with the corresponding dendrimer tested. 160 μl were then added to the cells seeded in 340 μl, completing a final volume of 500 μl. The cells were incubated in this way for 48 hours and then the effect of the incubation with the dendrimers was evaluated by its visual examination and by the evaluation of the mitochondrial activity.
A curve of mitochondrial activity was performed of the dendrimer concentration after 48 hours. […] It is a […] test based on the selective capacity of the cells viable for reducing 3-(4,5-dimethylthiazol-2-il)-2,5-diphenyl tetrazolium bromide in insoluble formazan crystals. After 48 hours of incubation of the PBMC with different concentrations of dendrimers in a 96-well plate (100,000/well), the supernatant which contained dendrimer was removed and it was replaced by 200 μl of a culture medium without serum or red phenol (Optimem). To avoid the loss of cells in this step and subsequently of formazan, a modification had been made of the protocol, seeding the PBMC in total human plasma fibronectin (Sigma®) at a concentration of 5-10 μg/ml, so that during the 4-hour incubation they fixed to the bottom of the well. In addition to the 200 μl of Optimem, 20 μl of filtered MTT were added to achieve its sterility (Thiazolyl Blue, Sigma®) in PBS pH 7.4 at a concentration of 5 mg/ml to achieve a final concentration per well of 0.5 mg MTT/ml. After 4 hours of incubation at 37° C. with 5% CO2 atmosphere, the plate was centrifuged at 2000 rpm and the supernatant with the excess MTT that had not reacted was subsequently removed. The formazan crystals were observed under a phase contrast microscope and later dissolved with 200 μl of dimethyl sulfoxide (DMSO). The plate was stirred at 700 rpm in an Eppendorf® stirrer-heater to ensure the correct dissolution of said crystals. The concentration of formazan ([A]) was determined by spectrometry using a plate reader at a wavelength of 570 nm with a reference of 690 nm. The spectrophotometry was calibrated to zero using Optimem without cells. The relative cell viability (%) with respect to the control (untreated cells), based on mitochondrial activity, was calculated based on this formula: [A] test/[A] control×100. Each dendrimer concentration was tested in triplicate, following the guidelines of the ATCC.

[4] = tested on: PBMC; assay: Lymphoproliferative test (tritiated thymidine); assay type: cell-based, human; conditions: 5 days, average of triplicate
Procedure: To evaluate the antigenic capacity of CBS dendrimers, a lymphoproliferative test was performed. The experiment was prepared in triplicate in a 96-well flat bottomed plate (100,000 cells per well in 200 μl of complete human AB medium with antibiotics, glutamine and 10% AB serum). […] After 5 days of incubation at 37° C. with 5% atmosphere of CO2 100 μl of supernatant was removed, then adding 100 μL of a medium with an isotopic intercalating agent of DNA, tritiated thymidine (prepared with 10% AB medium and Thymidine 1/100). The plate was then filtered using a Harvester passing its content through a filter, which was left to dry overnight (approx. 16 hours). After this period, a sheet of Methylex® containing scintillation medium was heat-melted, and it was read in a gamma camera to evaluate the number of counts (greater the counts, more proliferation). The results, which are shown below in Table 8, are expressed as tritiated thymidine counts per minute (cpm). Each result of each concentration was performed in triplicate, the value which appears in the table being the average of the 3. The PHA and the control were tested 12 times.

## C[Si](C)(CCCN)CCC[Si](C)(CCC[Si](C)(C)CCCN)CCC[Si](CCC[Si](C)(CCC[Si](C)(C)CCCN)CCC[Si](C)(C)CCCN)(CCC[Si](C)(CCC[Si](C)(C)CCCN)CCC[Si](C)(C)CCCN)CCC[Si](C)(CCC[Si](C)(C)CCCN)CCC[Si](C)(C)CCCN.Cl.Cl.Cl.Cl.Cl.Cl.Cl.Cl [ClNH4, 2G-[Si(CH2)3NH3^+Cl^−]8]
[1]
  Apoptosis-necrosis (%): 26%
  Live cells (%): 71%
[2]; pHs 2.8, 2.7, 4.7, 5.7, 6.4, 7.4, 8
  stability of dendrimer-ODN complex at the pHs tested: stable at all pHs tested
[3]; 1 μM
  Cell viability after incubation with dendrimers according to MTT: 65.5%
[3]; 5 μM
  Cell viability after incubation with dendrimers according to MTT: 47%
[3]; 10 μM
  Cell viability after incubation with dendrimers according to MTT: 40%
[3]; 20 μM
  Cell viability after incubation with dendrimers according to MTT: 16%
[3]; 100 μM
  Cell viability after incubation with dendrimers according to MTT: 14%

## C[N+](C)(C)CCO[Si](C)(C)CCC[Si](C)(CCC[Si](CCC[Si](C)(CCC[Si](C)(C)OCC[N+](C)(C)C)CCC[Si](C)(C)OCC[N+](C)(C)C)(CCC[Si](C)(CCC[Si](C)(C)OCC[N+](C)(C)C)CCC[Si](C)(C)OCC[N+](C)(C)C)CCC[Si](C)(CCC[Si](C)(C)OCC[N+](C)(C)C)CCC[Si](C)(C)OCC[N+](C)(C)C)CCC[Si](C)(C)OCC[N+](C)(C)C.[I-].[I-].[I-].[I-].[I-].[I-].[I-].[I-] [IM8, 2G-[Si(OCH2CH2NMe3^+I^−)]8]
[1]
  Apoptosis-necrosis (%): 36%
  Live cells (%): 59%
[2]
  pH at which the dendrimer-ODN complex is labile / dissociated: < 4.7
[3]; 1 μM
  Cell viability after incubation with dendrimers according to MTT: 98%
[3]; 5 μM
  Cell viability after incubation with dendrimers according to MTT: 60%
[3]; 10 μM
  Cell viability after incubation with dendrimers according to MTT: 18%
[3]; 20 μM
  Cell viability after incubation with dendrimers according to MTT: 12%
[3]; 100 μM
  Cell viability after incubation with dendrimers according to MTT: 10%
[4]; 2 μM
  Measurement of the scintillation counter (tritiated thymidine counts): 144 cpm
[4]; 5 μM
  Measurement of the scintillation counter (tritiated thymidine counts): 149 cpm

## C[N+](C)(C)CCO[Si](C)(CCC[Si](C)(CCC[Si](CCC[Si](C)(CCC[Si](C)(OCC[N+](C)(C)C)OCC[N+](C)(C)C)CCC[Si](C)(OCC[N+](C)(C)C)OCC[N+](C)(C)C)(CCC[Si](C)(CCC[Si](C)(OCC[N+](C)(C)C)OCC[N+](C)(C)C)CCC[Si](C)(OCC[N+](C)(C)C)OCC[N+](C)(C)C)CCC[Si](C)(CCC[Si](C)(OCC[N+](C)(C)C)OCC[N+](C)(C)C)CCC[Si](C)(OCC[N+](C)(C)C)OCC[N+](C)(C)C)CCC[Si](C)(OCC[N+](C)(C)C)OCC[N+](C)(C)C)OCC[N+](C)(C)C.[I-].[I-].[I-].[I-].[I-].[I-].[I-].[I-].[I-].[I-].[I-].[I-].[I-].[I-].[I-].[I-] [IM16, 2G-[Si(OCH2CH2NMe3^+I^−)2]8]
[1]
  Apoptosis-necrosis (%): 28%
  Live cells (%): 67%
[3]; 1 μM
  Cell viability after incubation with dendrimers according to MTT: 94%
[3]; 5 μM
  Cell viability after incubation with dendrimers according to MTT: 99%
[3]; 10 μM
  Cell viability after incubation with dendrimers according to MTT: 63%
[3]; 20 μM
  Cell viability after incubation with dendrimers according to MTT: 37%
[3]; 100 μM
  Cell viability after incubation with dendrimers according to MTT: 11%
[3]
  mitochondrial viability (comparison among dendrimers): greater mitochondrial viability
[4]; 2 μM
  Measurement of the scintillation counter (tritiated thymidine counts): 175 cpm
[4]; 5 μM
  Measurement of the scintillation counter (tritiated thymidine counts): 141 cpm

## CN(CCO[Si](C)(C)CCC[Si](C)(CCC[Si](CCC[Si](C)(CCC[Si](C)(C)OCCN(C)CC[N+](C)(C)C)CCC[Si](C)(C)OCCN(C)CC[N+](C)(C)C)(CCC[Si](C)(CCC[Si](C)(C)OCCN(C)CC[N+](C)(C)C)CCC[Si](C)(C)OCCN(C)CC[N+](C)(C)C)CCC[Si](C)(CCC[Si](C)(C)OCCN(C)CC[N+](C)(C)C)CCC[Si](C)(C)OCCN(C)CC[N+](C)(C)C)CCC[Si](C)(C)OCCN(C)CC[N+](C)(C)C)CC[N+](C)(C)C.[I-].[I-].[I-].[I-].[I-].[I-].[I-].[I-] [NN, 2G-[Si(O(CH2)2N(Me)(CH2)2NMe3^+I^−)]8]
[1]
  Apoptosis-necrosis (%): 24%
  Live cells (%): 70%
[3]; 1 μM
  Cell viability after incubation with dendrimers according to MTT: 87%
[3]; 5 μM
  Cell viability after incubation with dendrimers according to MTT: 68%
[3]; 10 μM
  Cell viability after incubation with dendrimers according to MTT: 66%
[3]; 20 μM
  Cell viability after incubation with dendrimers according to MTT: 32%
[3]; 100 μM
  Cell viability after incubation with dendrimers according to MTT: 9%
[3]
  mitochondrial viability (comparison among dendrimers): greater mitochondrial viability
[4]; 2 μM
  Measurement of the scintillation counter (tritiated thymidine counts): 145 cpm
[4]; 5 μM
  Measurement of the scintillation counter (tritiated thymidine counts): 160 cpm
